Patent publication US20260262643A1, “HERBICIDAL BENZOXAZINES” (FMC CORPORATION, priority 2022, published 2026)

Columns and labels:
horseweed = experiment: Test C postemergence; type: in vivo, Erigeron canadensis; conditions: 10 days
Outline: (§1)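 Soil-applied (pre) and foliar (post, 1–2 leaf, 2–10 cm) sprays; surfactant-containing non-phytotoxic solvent vehicle; loam/sand substrate. Readout: visual % control at 10 d, greenhouse, versus untreated.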

corn [1] = experiment: Test C postemergence; type: in vivo, Zea mays; conditions: 10 days
Outline: as §1

oat, wild [2] = experiment: Test C preemergence; type: in vivo, Avena fatua; conditions: for Oat, Wild plant response rating: preemergence, 0 to 100 scale (0 no effect, 100 complete control)
Outline: as §1

ryegrass, Italian [3] = experiment: Test C postemergence; type: in vivo, Lolium multiflorum; conditions: 125 g ai/ha, 10 days
Outline: as §1

ducksalad = experiment: Test D flooded paddy test; type: in vivo, Heteranthera limosa; conditions: 250 g ai/ha, applied to paddy water, visual rating after 13 to 14 days, scale 0 to 100 (0 no effect, 100 complete control)
Outline: (§2)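 Plants grown to the 2-leaf stage; pots flooded to 3 cm above soil at treatment and held at that depth throughout. Test compounds applied directly to the paddy water. After 13 to 14 days in a greenhouse, response was rated visually versus controls on a 0 (no effect) to 100 (complete control) scale.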

oat, wild [4] = experiment: Test C postemergence; type: in vivo, Avena fatua; conditions: 10 days
Outline: as §1

pigweed, palmer [5] = experiment: Test C postemergence; type: in vivo, Amaranthus palmeri; conditions: 10 days
Outline: as §1

blackgrass [6] = experiment: Test C postemergence; type: in vivo, Alopecurus myosuroides; conditions: 10 days
Outline: as §1

ragweed [7] = experiment: Test C preemergence; type: in vivo, Ambrosia artemisiifolia; conditions: for Ragweed plant response rating: preemergence, 0 to 100 scale (0 no effect, 100 complete control)
Outline: as §1

soybean [8] = experiment: Test C postemergence; type: in vivo, Glycine max; conditions: 125 g ai/ha, 10 days
Outline: as §1

galium = experiment: Test C postemergence; type: in vivo, Galium aparine; conditions: 10 days
Outline: as §1

sedge, umbrella = experiment: Test D flooded paddy test; type: in vivo, Cyperus difformis; conditions: 250 g ai/ha, applied to paddy water, visual rating after 13 to 14 days, scale 0 to 100 (0 no effect, 100 complete control)
Outline: as §2

pigweed, palmer [9] = experiment: Test C preemergence; type: in vivo, Amaranthus palmeri; conditions: for Pigweed, Palmer plant response rating: preemergence, 0 to 100 scale (0 no effect, 100 complete control)
Outline: as §1

ragweed [10] = experiment: Test C postemergence; type: in vivo, Ambrosia artemisiifolia; conditions: 125 g ai/ha, 10 days
Outline: as §1

barnyardgrass [11] = experiment: Test D flooded paddy test; type: in vivo, Echinochloa crus-galli; conditions: 250 g ai/ha, applied to paddy water, visual rating after 13 to 14 days, scale 0 to 100 (0 no effect, 100 complete control)
Outline: as §2

barnyardgrass [12] = experiment: Test C postemergence; type: in vivo, Echinochloa crusgalli; conditions: 10 days
Outline: as §1

ryegrass, Italian [13] = experiment: Test C preemergence; type: in vivo, Lolium multiflorum; conditions: for Ryegrass, Italian plant response rating: preemergence, 0 to 100 scale (0 no effect, 100 complete control)
Outline: as §1

wheat [14] = experiment: Test C preemergence; type: in vivo, Triticum aestivum; conditions: for Wheat plant response rating: preemergence, 0 to 100 scale (0 no effect, 100 complete control)
Outline: as §1

soybean [15] = experiment: Test C preemergence; type: in vivo, Glycine max; conditions: for Soybean plant response rating: preemergence, 0 to 100 scale (0 no effect, 100 complete control)
Outline: as §1

rice = experiment: Test D flooded paddy test; type: in vivo, Oryza sativa; conditions: 250 g ai/ha, applied to paddy water, visual rating after 13 to 14 days, scale 0 to 100 (0 no effect, 100 complete control)
Outline: as §2

green foxtail [16] = experiment: Test C postemergence; type: in vivo, Setaria viridis; conditions: 10 days
Outline: as §1

barnyardgrass [17] = experiment: Test C preemergence; type: in vivo, Echinochloa crusgalli; conditions: for Barnyardgrass plant response rating: preemergence; for Plant response rating, Barnyardgrass: Preemergence
Outline: as §1

wheat [18] = experiment: Test C postemergence; type: in vivo, Triticum aestivum; conditions: 125 g ai/ha, 10 days
Outline: as §1

kochia [19] = experiment: Test C preemergence; type: in vivo, Bassia scoparia; conditions: for Kochia plant response rating: preemergence, 0 to 100 scale (0 no effect, 100 complete control)
Outline: as §1

kochia [20] = experiment: Test C postemergence; type: in vivo, Bassia scoparia; conditions: 10 days
Outline: as §1

blackgrass [21] = experiment: Test C preemergence; type: in vivo, Alopecurus myosuroides; conditions: for Blackgrass plant response rating: preemergence; for Plant response rating, Blackgrass: Preemergence
Outline: as §1

corn [22] = experiment: Test C preemergence; type: in vivo, Zea mays; conditions: for Corn plant response rating: preemergence, 0 to 100 scale (0 no effect, 100 complete control)
Outline: as §1

green foxtail [23] = experiment: Test C preemergence; type: in vivo, Setaria viridis; conditions: for Foxtail, Green plant response rating: preemergence, 0 to 100 scale (0 no effect, 100 complete control)
Outline: as §1

[24] = 500 g ai/ha, postemergence, 0 to 100 scale (0 no effect, 100 complete control)
[25] = Postemergence, 125 g ai/ha, 0 to 100 scale (0 no effect, 100 complete control)
[26] = Preemergence, 125 g ai/ha, 0 to 100 scale, 0 no effect, 100 complete control
[27] = Postemergence, 0 to 100 scale (0 no effect, 100 complete control)
[28] = 500 g ai/ha, 0 to 100 scale (0 no effect, 100 complete control)
[29] = 125 g ai/ha, 0 to 100 scale, 0 no effect, 100 complete control
[30] = 125 g ai/ha, postemergence, 0 to 100 scale, 0 no effect, 100 complete control
[31] = Postemergence, 500 g ai/ha, visual 0 to 100 scale (0 no effect, 100 complete control)
[32] = postemergence, 0 to 100 scale, 0 no effect, 100 complete control
[33] = 500 g ai/ha, visual rating after 10 days, 0 to 100 scale (0 no effect, 100 complete control)
[34] = Test C, 125 g ai/ha, 0 to 100 scale (0 no effect, 100 complete control)

COC[C@H]1CN(C(=O)c2cc(-n3cnc(C(C)(C)O)n3)ccc2OC)c2cccc(Cl)c2O1 [Compound 408]
Plant response rating, Horseweed (horseweed; [24]): 60 | Plant response rating, Horseweed (horseweed; [25]): 0 | Plant response rating, Corn (corn [1]; [24]): 80 | Plant response rating, Corn (corn [1]; [25]): 10 | Oat, Wild plant response rating (oat, wild [2]; 500 g ai/ha): 60 | Plant response rating, Oat, Wild (oat, wild [2]; [26]): 30 | Plant response rating, Ryegrass, Italian (ryegrass, Italian [3]; [27]): 70 | Plant response rating, Ducksalad (Flood) (ducksalad): 90 | Plant response rating, Oat, Wild (oat, wild [4]; [24]): 90 | Plant response rating, Oat, Wild (oat, wild [4]; [25]): 30 | Plant response rating, Pigweed, Palmer (pigweed, palmer [5]; [24]): 80 | Plant response rating, Pigweed, Palmer (pigweed, palmer [5]; [25]): 80 | Plant response rating, Blackgrass (blackgrass [6]; [24]): 70 | Plant response rating, Blackgrass (blackgrass [6]; [25]): 0 | Ragweed plant response rating (ragweed [7]; 500 g ai/ha): 90 | Plant response rating, Ragweed (ragweed [7]; [26]): 60 | Plant response rating, Soybean (soybean [8]; [27]): 100 | Plant response rating, Galium (galium; [25]): 100 | Plant response rating, Sedge, Umbrella (Flood) (sedge, umbrella): 98 | Pigweed, Palmer plant response rating (pigweed, palmer [9]; 500 g ai/ha): 100 | Plant response rating, Pigweed, Palmer (pigweed, palmer [9]; [26]): 100 | Plant response rating, Ragweed (ragweed [10]; [27]): 50 | Plant response rating, Barnyardgrass (Flood) (barnyardgrass [11]): 10 | Plant response rating, Barnyardgrass (barnyardgrass [12]; [24]): 60 | Plant response rating, Barnyardgrass (barnyardgrass [12]; [25]): 10 | Ryegrass, Italian plant response rating (ryegrass, Italian [13]; 500 g ai/ha): 80 | Plant response rating, Ryegrass, Italian (ryegrass, Italian [13]; [26]): 60 | Wheat plant response rating (wheat [14]; 500 g ai/ha): 60 | Plant response rating, Wheat (wheat [14]; [26]): 20 | Soybean plant response rating (soybean [15]; 500 g ai/ha): 100 | Plant response rating, Soybean (soybean [15]; [26]): 80 | Plant response rating, Rice (Flood) (rice): 15 | Plant response rating, Foxtail, Green (green foxtail [16]; [24]): 60 | Plant response rating, Foxtail, Green (green foxtail [16]; [25]): 20 | Barnyardgrass plant response rating (barnyardgrass [17]; [28]): 100 | Plant response rating, Barnyardgrass (barnyardgrass [17]; [29]): 60 | Plant response rating, Wheat (wheat [18]; [27]): 30 | Kochia plant response rating (kochia [19]; 500 g ai/ha): 100 | Plant response rating, Kochia (kochia [19]; [26]): 70 | Plant response rating, Kochia (kochia [20]; [24]): 90 | Plant response rating, Kochia (kochia [20]; [25]): 70 | Blackgrass plant response rating (blackgrass [21]; [28]): 80 | Plant response rating, Blackgrass (blackgrass [21]; [29]): 10 | Corn plant response rating (corn [22]; 500 g ai/ha): 60 | Plant response rating, Corn (corn [22]; [26]): 0 | Foxtail, Green plant response rating (green foxtail [23]; 500 g ai/ha): 100 | Plant response rating, Foxtail, Green (green foxtail [23]; [26]): 100

COC[C@H]1CN(C(=O)c2cc(-n3cnc(C4CCC4)n3)ccc2C)c2cccc(Cl)c2O1 [Compound 267]
Plant response rating, Horseweed (horseweed; [30]): 60 | Plant response rating, Horseweed (horseweed; [31]): 50 | Plant response rating, Corn (corn [1]; [30]): 50 | Plant response rating, Corn (corn [1]; [31]): 90 | Oat, Wild plant response rating (oat, wild [2]; 500 g ai/ha): 60 | Oat, Wild plant response rating (oat, wild [2]; Test C, 125 g ai/ha): 40 | Plant response rating, Ryegrass, Italian (ryegrass, Italian [3]; [32]): 60 | Plant response rating, Ducksalad (Flood) (ducksalad): 50 | Plant response rating, Oat, Wild (oat, wild [4]; [30]): 0 | Plant response rating, Pigweed, Palmer (pigweed, palmer [5]; [30]): 90 | Plant response rating, Blackgrass (blackgrass [6]; [30]): 30 | Plant response rating, Blackgrass (blackgrass [6]; [31]): 50 | Ragweed plant response rating (ragweed [7]; 500 g ai/ha): 60 | Ragweed plant response rating (ragweed [7]; Test C, 125 g ai/ha): 40 | Plant response rating, Soybean (soybean [8]; [32]): 100 | Plant response rating, Galium (galium; [30]): 100 | Plant response rating, Galium (galium; [31]): 100 | Plant response rating, Sedge, Umbrella (Flood) (sedge, umbrella): 98 | Pigweed, Palmer plant response rating (pigweed, palmer [9]; 500 g ai/ha): 100 | Pigweed, Palmer plant response rating (pigweed, palmer [9]; Test C, 125 g ai/ha): 90 | Plant response rating, Ragweed (ragweed [10]; [32]): 70 | Plant response rating, Barnyardgrass (Flood) (barnyardgrass [11]): 35 | Plant response rating, Barnyardgrass (barnyardgrass [12]; [30]): 60 | Plant response rating, Barnyardgrass (barnyardgrass [12]; [31]): 90 | Ryegrass, Italian plant response rating (ryegrass, Italian [13]; 500 g ai/ha): 90 | Ryegrass, Italian plant response rating (ryegrass, Italian [13]; Test C, 125 g ai/ha): 70 | Wheat plant response rating (wheat [14]; 500 g ai/ha): 30 | Wheat plant response rating (wheat [14]; Test C, 125 g ai/ha): 20 | Soybean plant response rating (soybean [15]; 500 g ai/ha): 90 | Soybean plant response rating (soybean [15]; Test C, 125 g ai/ha): 90 | Plant response rating, Rice (Flood) (rice): 25 | Plant response rating, Foxtail, Green (green foxtail [16]; [30]): 70 | Plant response rating, Foxtail, Green (green foxtail [16]; [31]): 90 | Plant response rating, Barnyardgrass (barnyardgrass [17]; [33]): 80 | Barnyardgrass plant response rating (barnyardgrass [17]; [34]): 60 | Plant response rating, Wheat (wheat [18]; [32]): 20 | Kochia plant response rating (kochia [19]; 500 g ai/ha): 90 | Kochia plant response rating (kochia [19]; Test C, 125 g ai/ha): 90 | Plant response rating, Kochia (kochia [20]; [30]): 90 | Plant response rating, Blackgrass (blackgrass [21]; [33]): 60 | Blackgrass plant response rating (blackgrass [21]; [34]): 20 | Corn plant response rating (corn [22]; 500 g ai/ha): 10 | Corn plant response rating (corn [22]; Test C, 125 g ai/ha): 0 | Foxtail, Green plant response rating (green foxtail [23]; 500 g ai/ha): 100 | Foxtail, Green plant response rating (green foxtail [23]; Test C, 125 g ai/ha): 100
